These results are taken from PMC12131194, “Rational design, synthesis, and evaluation of novel polypharmacological compounds targeting NaV1.5, KV1.5, and K2P channels for atrial fibrillation” (The Journal of Biological Chemistry, 2025).

Like-named read-outs stand apart in the source and are kept apart here.

One series addresses T1, h KV1.5 (Homo sapiens, UniProt P22460).
T1 construct: h KV1.5 (KCNA5, NM_002234); expressed in transfected cells; host or cells: Xenopus laevis oocytes injected with cRNA
The series can be described thus: TEVC recordings in X. laevis oocytes, KV1.5. The format is cell-based. As to conditions: 100 μM, +40 mV, oocytes, mean ± SD. As to the method:
(§1) The two-electrode voltage clamp (TEVC) technique was used for electrophysiology tests. Channels were expressed in Xenopus laevis oocytes. The initial channel-blocking potential was assessed at 100 μM for the 10 synthesized compounds on TASK-1 and KV1.5 channels.
(§2) To obtain X. laevis oocytes, the frogs were anesthetized with 2 g/L of tricaine methanesulfonate, and the ovarian lobes were mechanically separated with forceps. The oocytes were incubated for 120 min in an OR2 solution containing in mM: NaCl 82.5, KCl 2, MgCl2 1, HEPES 5 (pH 7.5) supplemented with 2 mg/ml of collagenase II (Sigma) to remove residual connective tissue and obtain individual oocytes. Subsequently, the oocytes were washed with a ND96 solution containing in mM: NaCl 96, KCl 2, CaCl2 1.8, MgCl2 1, HEPES 5 (pH 7.5, adjusted with NaOH) and stored at 18 °C in ND96 solution supplemented with 1 ml of gentamicin (50 mg/L), sodium pyruvate (275 mg/L) and (90 mg/L) theophylline (inhibits further oocyte maturation) before and after RNA injection.
(§3) In order to overexpress the channel in the oocyte, each of the channels to be measured was subcloned (complementary DNA (cDNA); human TASK-1 (KCNK3, NM_002246), h KV1.5 (KCNA5, NM_002234), h NaV1.5 (hH1, M77235), TASK-4/TALK-2 (KCNK17, NM_AF358910), TREK-1 (KCNK2, AF004711) and Kir2.1 (KCNJ2, NM_017296) into pSGEM, pBF1 or pSP64 expression vector, and the cDNA was linearized with NheI or MluI. Complementary RNA (cRNA) was synthesized with the mMESSAGE mMACHINE-Kit (Ambion). The quality of the cRNA was tested on an agarose gel by electrophoresis. cRNA was quantified using a UV-Vis spectrophotometer (NanoDrop 2000). Subsequently, the channel was transfected in the oocytes in stages V and VI, for which […] (TASK-1, KV1.5 or TREK-1), 10 ng (NaV1.5 or TASK-4) o 2.5 ng (Kir2.1) per oocyte of cRNA was injected with a NanojectII microinjector (Drummond Scientific). The oocytes were stored in 24-well plates for 24 to 48 h at 18 °C. After this time, the overexpression of each channel was monitored through electrophysiology.
(§4) Two-electrode voltage clamp measurements were performed 24 or 48 h after cRNA injection at room temperature (20–22 °C) in ND96 recording solution with a TurboTEC-10CD (npi) amplifier and a Digidata 1550B (for TASK-1 and KV1.5) and 1440A (for NaV1.5) A/D converter from Axon Instruments. Micropipettes were fabricated from GB 150 TF-8P borosilicate glass capillaries (Science Products) elongated in a DMZ-Universal Puller (Zeitz, Germany). […] ND96 was used as bath solution. Data acquisition was performed using Clampex 10 software (Axon Instruments), and data were analyzed with ClampFit 10 (Axon Instruments) and Origin 7 (Origin Lab Corporation).
(§5) For compound inhibition testing, from a holding potential of −80 mV a first test pulse to 0 mV of 1 s duration was followed by a repolarization step at −80 mV for 1 s, directly followed by another 1 s test pulse at +40 mV. The sweep time interval was 10 s for KV1.5 and TASK-1 channels. For the NaV1.5 channel, the block was analyzed with voltage steps from a holding potential of −80 mV. A first depolarizing pulse to −30 mV of 50 ms duration was applied, followed by a 5 ms step to −80 mV. The sweep time interval was 5 s. The compounds were applied at different concentrations to determine the half-maximal inhibitory concentration (IC50), using a fit to the Hill equation.
(§6) To test for a putative voltage-dependence of the block by the compound 6f in KV1.5, a 1.5 s voltage step protocol from −80 to +80 mV with +20 mV increments was used. The holding potential was −80 mV and the sweep time interval was 10 s. Currents were analyzed at the end of the voltage pulse. For TASK-1, voltage-dependence of block was probed using a high-potassium solution (KD96) containing in mM: KCl 96, NaCl 2, CaCl2 1.8, MgCl2 1, HEPES 5, (pH 7.5, adjusted with KOH). From a holding potential of 0 mV, voltage was stepped from −80 mV to +80 mV for 1.5 s in +20 mV steps every 10 s. […]

The next series relates to virtual atria with AF. More on the design: method as in PMID 37475475, PMID 38870348. Particulars: ref [74], [75]; cited from earlier work.
The target in another series is human TASK-1 (Homo sapiens, UniProt O14649). The series can be described thus: TEVC recordings in X. laevis oocytes, TASK-1. The format is cell-based. As to conditions: 100 μM, +40 mV, oocytes, mean ± SD. More on the design: human TASK-1 (KCNK3, NM_002246); expressed in transfected cells; host or cells: Xenopus laevis oocytes injected with cRNA. As to the method:
as §1, §2, §3, §4, §5, §6

Another series deals with human erythrocytes. Description: Hemolysis assay. Format: cell-based. As to conditions: 0.2–400 μM, 2 hours, 37 °C. As to the method:
To evaluate cytotoxicity, the hemolysis of the compounds with the best simultaneous blocking activity on the channels (6e, 6f, 7a, 7b and 7c) was considered, modifying the protocol of Chen 2018 ([112]). Thus, non-heparinized human blood was collected. Erythrocytes were washed three times in 1× PBS (phosphate-buffered saline: NaCl, 8 g/L; KCl, 0.2 g/L; Na2HPO4, 1.44 g/L; and KH2PO4, 0.24 g/L; pH 7.4) and then used to prepare a 3% red blood cell (RBC) suspension. The assay was performed in a 96-well polypropylene microplate.
The compounds were prepared from 200 mM stock solutions in DMSO. Subsequently, 1:2 serial dilutions were made in 1× PBS, with final concentrations from 400 to 0.2 μM to a final volume of 200 μl per well. The microplate was incubated for 2 h at 37 °C and centrifuged at 3400 rpm for 5 min. Finally, 100 μl of the supernatant was transferred and measured in a 96-well plate. Hemoglobin release was monitored by photometric analysis of the supernatant at 540 nm using an Epoch Microplate Spectrophotometer (BioTek Instruments, Inc. Winooski, Vermont 05404-0998).
A 3% RBC suspension treated with Tween 20 was used to obtain total lysis as a positive control. Other authors who performed hemolysis assays have also considered this and other detergents, such as Triton X-100 and Sodium Dodecyl Sulfate (SDS) as positive controls ([113], [114], [115], [116]). The negative control was a suspension of red blood cells with PBS. Each experiment was performed in triplicate at all concentrations used. The percentage of hemolysis was calculated with the following (Equation 1), where Ad: absorbance of the dilution, A0: absorbance of the blank (RBC suspension with PBS), and At: total absorbance (positive control).(1) %hemolysis=Ad−A0/At−A0x100

In the next series the target is T2, h NaV1.5 (Homo sapiens, UniProt Q14524, R1027Q).
T2 construct: expressed in transfected cells; host or cells: Xenopus laevis oocytes injected with cRNA
T2 sequence (Q14524 whole entry R1027Q): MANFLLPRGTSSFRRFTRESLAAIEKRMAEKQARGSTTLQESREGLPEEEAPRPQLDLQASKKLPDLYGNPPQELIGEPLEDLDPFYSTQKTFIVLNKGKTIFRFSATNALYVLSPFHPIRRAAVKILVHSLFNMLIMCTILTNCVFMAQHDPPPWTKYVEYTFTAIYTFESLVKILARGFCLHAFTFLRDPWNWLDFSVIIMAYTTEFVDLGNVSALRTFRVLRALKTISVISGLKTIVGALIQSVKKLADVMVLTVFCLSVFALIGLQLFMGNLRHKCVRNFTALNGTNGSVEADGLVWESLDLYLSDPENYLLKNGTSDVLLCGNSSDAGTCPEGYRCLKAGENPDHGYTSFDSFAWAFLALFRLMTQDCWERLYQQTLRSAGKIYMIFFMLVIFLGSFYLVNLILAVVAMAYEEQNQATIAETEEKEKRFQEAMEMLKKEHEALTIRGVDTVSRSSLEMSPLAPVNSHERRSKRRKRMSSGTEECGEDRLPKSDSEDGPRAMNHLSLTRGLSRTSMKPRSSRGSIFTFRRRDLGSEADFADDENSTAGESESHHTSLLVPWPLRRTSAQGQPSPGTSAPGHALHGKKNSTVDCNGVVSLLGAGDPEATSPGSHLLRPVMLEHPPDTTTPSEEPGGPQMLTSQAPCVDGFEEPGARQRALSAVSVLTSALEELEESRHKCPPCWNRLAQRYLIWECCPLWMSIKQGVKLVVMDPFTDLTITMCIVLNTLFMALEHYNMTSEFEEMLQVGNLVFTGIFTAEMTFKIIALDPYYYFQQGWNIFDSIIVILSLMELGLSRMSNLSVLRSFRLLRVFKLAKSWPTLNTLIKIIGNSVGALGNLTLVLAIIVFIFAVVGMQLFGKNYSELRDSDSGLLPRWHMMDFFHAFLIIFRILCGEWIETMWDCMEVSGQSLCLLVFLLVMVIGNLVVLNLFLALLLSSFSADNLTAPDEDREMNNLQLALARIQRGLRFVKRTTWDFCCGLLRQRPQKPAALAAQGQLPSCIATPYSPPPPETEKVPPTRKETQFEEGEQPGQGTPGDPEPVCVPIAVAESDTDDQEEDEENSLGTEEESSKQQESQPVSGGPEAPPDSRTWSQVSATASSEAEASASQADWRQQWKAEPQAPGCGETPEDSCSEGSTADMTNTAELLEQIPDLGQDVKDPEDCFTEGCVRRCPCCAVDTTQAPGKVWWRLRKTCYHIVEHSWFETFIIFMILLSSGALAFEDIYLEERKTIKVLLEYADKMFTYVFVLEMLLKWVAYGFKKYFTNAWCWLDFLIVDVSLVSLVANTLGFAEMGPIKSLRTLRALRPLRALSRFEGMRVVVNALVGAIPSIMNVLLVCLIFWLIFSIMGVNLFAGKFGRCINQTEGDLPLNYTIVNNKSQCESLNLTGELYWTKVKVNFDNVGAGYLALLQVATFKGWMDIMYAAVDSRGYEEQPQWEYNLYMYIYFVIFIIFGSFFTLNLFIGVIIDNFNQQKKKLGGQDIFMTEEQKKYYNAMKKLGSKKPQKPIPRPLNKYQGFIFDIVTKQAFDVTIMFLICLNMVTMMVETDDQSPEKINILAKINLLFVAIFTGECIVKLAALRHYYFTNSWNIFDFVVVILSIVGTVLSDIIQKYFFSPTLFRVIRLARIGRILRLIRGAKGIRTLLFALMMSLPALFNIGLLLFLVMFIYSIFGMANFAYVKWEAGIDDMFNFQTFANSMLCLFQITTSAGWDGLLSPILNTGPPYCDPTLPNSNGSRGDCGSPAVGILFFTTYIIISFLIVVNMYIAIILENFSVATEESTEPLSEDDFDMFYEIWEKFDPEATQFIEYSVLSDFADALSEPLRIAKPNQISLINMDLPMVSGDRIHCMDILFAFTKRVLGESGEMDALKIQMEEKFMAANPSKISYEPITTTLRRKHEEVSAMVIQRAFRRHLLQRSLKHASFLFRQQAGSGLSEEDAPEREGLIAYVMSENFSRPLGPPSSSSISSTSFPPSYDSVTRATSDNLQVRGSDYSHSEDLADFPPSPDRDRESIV
Description: TEVC recordings in X. laevis oocytes, NaV1.5. The format is cell-based. As to conditions: 100 μM, −30 mV, oocytes, mean ± SD. As to the method: as §2, §3, §4, §5
To test for a putative voltage-dependence of the block by the compound 6f in KV1.5, a 1.5 s voltage step protocol from −80 to +80 mV with +20 mV increments was used. The holding potential was −80 mV and the sweep time interval was 10 s. Currents were analyzed at the end of the voltage pulse. For TASK-1, voltage-dependence of block was probed using a high-potassium solution (KD96) containing in mM: KCl 96, NaCl 2, CaCl2 1.8, MgCl2 1, HEPES 5, (pH 7.5, adjusted with KOH). From a holding potential of 0 mV, voltage was stepped from −80 mV to +80 mV for 1.5 s in +20 mV steps every 10 s. To determine the current-voltage relationship of the NaV1.5 channel, the voltage was stepped for 50 ms from a holding potential of −80 mV to −70 mV to +80 mV in +10 mV increments every 5 s. The peak currents were subsequently plotted against the respective applied voltages.

Series [1] concerns NaV1.5. As to conditions: HEK-293 cells, racemic (R/S) compound, NaV1.5 open state; ref [40]; read-out: Reported IC50 NaV1.5; cited from earlier work.
A further series relates to TASK-1. Also noted: method as in PMID 21946151. As to conditions: HEK-293 cells; ref [38]; read-out: Reported IC50 TASK-1; cited from earlier work.
Another series relates to KV1.5. Also noted: method as in PMID 33817777. Particulars: X. laevis oocytes, ref [15], read-out: Reported IC50 KV1.5, cited from earlier work.
Series [2] deals with NaV1.5. As to conditions: X. laevis oocytes, racemic (R/S) compound; ref [39]; read-out: Reported IC50 NaV1.5; cited from earlier work.

T1 sequence (P22460 whole entry): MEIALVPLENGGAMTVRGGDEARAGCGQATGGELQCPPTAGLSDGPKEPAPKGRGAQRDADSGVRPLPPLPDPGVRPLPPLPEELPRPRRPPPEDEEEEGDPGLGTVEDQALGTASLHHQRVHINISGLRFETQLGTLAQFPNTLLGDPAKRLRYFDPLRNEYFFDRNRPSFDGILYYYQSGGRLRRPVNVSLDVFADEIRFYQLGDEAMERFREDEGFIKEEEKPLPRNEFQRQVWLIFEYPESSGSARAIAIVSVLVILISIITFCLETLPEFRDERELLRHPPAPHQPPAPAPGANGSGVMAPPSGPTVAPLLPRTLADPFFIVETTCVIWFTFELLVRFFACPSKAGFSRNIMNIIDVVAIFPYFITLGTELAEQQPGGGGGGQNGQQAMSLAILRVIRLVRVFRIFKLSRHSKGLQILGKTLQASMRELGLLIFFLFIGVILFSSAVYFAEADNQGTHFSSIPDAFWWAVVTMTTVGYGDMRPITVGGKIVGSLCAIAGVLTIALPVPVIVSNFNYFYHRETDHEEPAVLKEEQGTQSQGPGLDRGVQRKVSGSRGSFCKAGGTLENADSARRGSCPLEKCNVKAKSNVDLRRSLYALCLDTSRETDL
Sequence of human TASK-1 (O14649 whole entry): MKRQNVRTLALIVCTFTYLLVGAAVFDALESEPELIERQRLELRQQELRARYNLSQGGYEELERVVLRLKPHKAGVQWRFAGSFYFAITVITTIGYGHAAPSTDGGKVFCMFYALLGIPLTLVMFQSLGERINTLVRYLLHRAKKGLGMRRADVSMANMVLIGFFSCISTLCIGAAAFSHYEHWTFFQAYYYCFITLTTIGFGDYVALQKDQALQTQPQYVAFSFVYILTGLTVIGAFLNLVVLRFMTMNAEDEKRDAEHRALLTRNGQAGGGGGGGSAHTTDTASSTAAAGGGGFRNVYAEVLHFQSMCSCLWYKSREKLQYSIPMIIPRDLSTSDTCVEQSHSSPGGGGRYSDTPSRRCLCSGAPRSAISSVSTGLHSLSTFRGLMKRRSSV

The term inhibition denotes how much of the control response was suppressed. The compound `Cc1cc(C)cc(NC(=O)CN(C(C)C)C(C)C)c1` [Compound 6d, 2-(diisopropylamine)-N-(3,5-dimetylphenyl)acetamide] came in with an inhibition at 100 µM against h KV1.5 of 12.3 ± 6.01%. On the same count and under the same terms, in the case of `CCCCN(CCCC)CC(=O)Nc1ccccc1CC` [Compound 6b, 2-(dibutylamine)-N-(2-ethylphenyl)acetamide] it was 12.3 to 35.7%. As to `O=C(NCC1CCCCN1)c1cc(OCC(F)(F)F)ccc1OCC(F)(F)F` (stereo not shown) [flecainide], the “Cardioversion efficacy in other simulation studies” value (from here on “Cardioversion efficacy”) with virtual atria with AF is reported as 48–70%. Take `CCCCN(CCCC)CC(=O)Nc1cc(C)cc(C)c1` [Compound 6c, 2-(dibutylamine)-N-(3,5-dimethylphenyl)acetamide]: the inhibition at 100 µM against h KV1.5 is 12.3 to 35.7%. Regarding `CCCCN(CCCC)CC(=O)Nc1ccccc1C` [Compound 6a, 2-(dibutylamine)-N-(o-tolyl)acetamide], the inhibition at 100 µM is 12.3 to 35.7% at h KV1.5 and 88.3 ± 6.57% at human TASK-1. Turning to `CCCCN(CCCC)C(C)C(=O)Nc1ccc(OC)cc1` (stereo not shown) [Compound 7a, 2-(dibutylamine)-N-(4-methoxiphenyl)propanamide], the results for the inhibition at 100 µM at h KV1.5 and on h NaV1.5 were 38 ± 16.1% and 11.9 ± 15%, respectively. Further, in the series with human erythrocytes, the Hemolytic effect result is “no hemolytic effect”. As for `CCCCN(CCCC)CC(=O)Nc1ccc(OC)cc1` [Compound 6e, 2-(dibutylamine)-N-(4-methoxiphenyl)acetamide], the inhibition at 100 µM at h KV1.5 turned out to be 42.2 ± 21.2%; on h NaV1.5, 81.2 ± 19%. Besides, the Hemolytic effect entry in the series on human erythrocytes was “no hemolytic effect”. Taken in the same sequence, the figures for `CCCCN(CCCC)C(C)C(=O)Nc1ccccc1C` (stereo not shown) [Compound 7b, 2-(dibutylamine)-N-(o-tolyl)propanamide] were 36.9 ± 13.6%, 58.9 ± 21.2% and “no hemolytic effect”. Broadly, the IC50 is the concentration needed to halve the response being measured. Consider `CCCN1CCCC[C@H]1C(=O)Nc1c(C)cccc1C` [Ropivacaine, ropivacaine], for which the figures for the IC50 in the series with NaV1.5 [1] and in the series with TASK-1 were 322 µM and 17.6 µM, respectively. Take `CCCN1CCCC[C@H]1C(=O)Nc1c(C)cccc1C` [ropivacaineS]: in the series with KV1.5 (S enantiomer), the IC50 was 129 µM. With `COc1ccc(CCO[C@@H]2CCCC[C@H]2N2CC[C@@H](O)C2)cc1OC` [vernakalant], the “Cardioversion efficacy” value in the series with virtual atria with AF is recorded as 42–57%. In the case of `CCCCc1oc2ccccc2c1C(=O)c1cc(I)c(OCCN(CC)CC)c(I)c1` [amiodarone], the “Cardioversion efficacy” value with virtual atria with AF is recorded as 57–80%. With `CCCCN1CCCCC1C(=O)Nc1c(C)cccc1C` (stereo not shown) [Bupivacaine, bupivacaine], the IC50 was 12.1 µM in the series with TASK-1, 31 µM with KV1.5 (racemic (R/S) compound) and 4.5 µM in the series on NaV1.5 [2].

`CCCCN(CCCC)C(C)C(=O)Nc1cc(C)cc(C)c1` (stereo not shown) [Compound 7d, 2-(dibutylamine)-N-(3,5-dimetilphenyl)propanamide] displayed an inhibition at 100 µM on h KV1.5 of 12.3 to 35.7%. `CCCCN(CCCC)C(C)C(=O)Nc1cccc2ccccc12` (stereo not shown) [Compound 7c, 2-(dibutylamine)-N-(naphthalen-1-yl)propanamide]: the inhibition at 100 µM was found to be 35.7 ± 18.3% against h KV1.5, 89.3 ± 6.56% on human TASK-1 and 31.1 ± 13.7% against h NaV1.5. The Hemolytic effect entry with human erythrocytes was “no hemolytic effect”.
